Laboratory results taken from patent publication US10441564B2, “Fructose analogs and their combinations as anti-cancer agents” (priority 2016, dated 2019).
Entries after “also recorded” stand apart in the source; their conditions may differ.

Tests used:
OCI-AML3 = test: proliferation of AML cells OCI-AML3; type: cell-based
Description: (§1) In cell culture conditions with 6 mM fructose or 6 mM fructose+0.75 mM glucose, 2,5-AM could inhibit the proliferation of four AML cells, including U937, OCI-AML3, HL-60 and K562 cells.

[1] = tested on: U937-SLC2A5 cells (overexpressing the fructose transporter SLC2A5); test: cell migration of U937-SLC2A5 cells; type: cell-based; settings: 6 mM fructose or 6 mM fructose+0.75 mM glucose
BxPC-3 = test: fructose-induced proliferation of pancreatic cancer cells BxPC-3; type: cell-based; settings: 6 mM fructose culture
AML cells = test: fructose utilization in AML cells in vitro; type: cell-based; settings: in vitro cell experiments
From the text: Enhanced fructose metabolism mediated by GLUTS exacerbates the malignant phenotype of AML cells, including increased cell proliferation, enhanced colony formation, and increased mobility and infiltration of AML cells (FIG. 3A-3D). […] Additionally 2,5-AM can kill AML cells in concert with conventional chemotherapeutic agents (FIG. 7A-7G).

[2] = tested on: AML mice (murine leukemic cells with AML1-ETO and mutated C-KIT); test: AML model mice; type: in vivo, BALB/c female mice
Description: AML mice were generated using a previously reported procedure (Wang et al., 2011) with minor modifications. About 1×10^5 GFP-positive murine leukemic cells (splenic cells) with AML1-ETO and mutated C-KIT were injected into the tail vein of each sublethally irradiated (3.5 Gy), 8 week old BALB/c female mice. On day 5 after inoculation of AML cells, 2,5-AM was injected intraperitoneally at a dose of 150 mg/kg/day for continuous administration to mice. Control group AML mice were given saline injection according to the same dose and method.
chemotherapeutic drug cytarabine on the treatment of AML model mice (Ara-C) was administered intraperitoneally at a dose of 25 mg/kg/day on the third day in the AML model mice (see example 3) for 3 days after AML cell inoculation. At the same time, mice were intraperitoneally injected with 2,5 AM at a dose of 150 mg/kg/day on day 5 after AML cell inoculation, until mice were dead. (2) Ara-C alone group: In the AML model mice of Example 3, Ara-C was injected intraperitoneally at a dose of 25 mg/kg/day on the third day after AML cell inoculation for 3 days.

CFPAC-1 = test: fructose-induced proliferation of pancreatic cancer cells CFPAC-1; type: cell-based; settings: 6 mM fructose culture
HCT-15 = test: malignant proliferation of colorectal cancer cells HCT-15; type: cell-based; settings: 6 mM fructose culture
PANC-1 = test: fructose-induced proliferation of pancreatic cancer cells PANC-1; type: cell-based; settings: 6 mM fructose culture
HCT-116 = test: malignant proliferation of colorectal cancer cells HCT-116; type: cell-based; settings: 6 mM fructose culture
[3] = tested on: U937-SLC2A5 cells (overexpressing the fructose transporter SLC2A5); test: colony formation of U937-SLC2A5 cells; type: cell-based; settings: 6 mM fructose or 6 mM fructose+0.75 mM glucose
HL-60 = test: proliferation of AML cells HL-60; type: cell-based
Description: as §1

[4] = tested on: U937-SLC2A5 cells (overexpressing the fructose transporter SLC2A5); test: malignant proliferation of AML cells U937-SLC2A5; type: cell-based; settings: 6 mM fructose or 6 mM fructose+0.75 mM glucose
cancer cells = test: fructose and glucose utilization by cancer cells; type: cell-based
From the text: The present inventors have discovered, for the first time, the important role of GLUTS-mediated fructose metabolism in the malignant progression of cancer, and the close relationship with the prognosis of the cancer patients, through extensive and in-depth research and clinical data analysis. […] Furthermore, 2,5-AM may reverse the malignant phenotypes of AML cells by synergizing with conventional chemotherapeutic cytarabine or glucose analogue 2-deoxy-glucose (2-DG). […] Moreover, 2,5-AM and cytarabine in AML mice also have a significant synergistic effect. Through the above work, the present inventors have determined the administration of 2,5-AM to AML, pancreatic cancer, and colorectal cancer, including the dosage, the route of administration and the duration of administration; and the combined use of 2,5-AM and conventional chemotherapeutic agents or 2-DG methods for cancer treatment.

K562 = test: proliferation of AML cells K562; type: cell-based
U937 = test: proliferation of AML cells U937; type: cell-based
Description: as §1

[5] = 6 mM fructose or 6 mM fructose+0.75 mM glucose
[6] = 150 mg/kg/day intraperitoneally from day 5, compared with saline control group

Compound: OC[C@H]1O[C@H](CO)[C@@H](O)[C@@H]1O [2,5-AM, 2,5-anhydro-D-mannitol]
- malignant proliferation of OCI-AML3 (OCI-AML3; [5]): significantly inhibited; also recorded: could inhibit
- cell proliferation of OCI-AML3 (OCI-AML3; 6 mM glucose): almost unaffected
- cell migration [1]: significantly inhibited
- proliferation of BxPC-3 (BxPC-3): significantly inhibited
- fructose utilization in AML cells (AML cells): blocked
- bone marrow leukemia cells [2, 6]: significantly inhibited
- hemoglobin [2, 6]: significantly increased
- overall survival of mice [2, 6]: significantly prolonged
- peripheral blood leukemia cells [2, 6]: significantly inhibited
- peripheral blood red blood cell count [2, 6]: significantly increased
- peripheral white blood cells [2, 6]: significantly inhibited
- platelet count [2, 6]: significantly increased
- spleen enlargement [2, 6]: significantly relieved
- fructose utilization by AML cells in vivo ([2]; mouse in vivo experiments): significantly inhibited
- proliferation of CFPAC-1 (CFPAC-1): significantly inhibited
- malignant proliferation of HCT-15 (HCT-15): significantly inhibited
- proliferation of PANC-1 (PANC-1): significantly inhibited
- malignant proliferation of HCT-116 (HCT-116): significantly inhibited
- colony formation [3]: significantly inhibited
- malignant proliferation of HL-60 (HL-60; [5]): significantly inhibited; also recorded: could inhibit
- cell proliferation of HL-60 (HL-60; 6 mM glucose): almost unaffected
- malignant proliferation of AML cells U937-SLC2A5 [4]: significantly inhibited
- fructose utilization by cancer cells (cancer cells): competitively inhibits
- glucose utilization (cancer cells): little effect
- malignant proliferation of K562 (K562; [5]): significantly inhibited; also recorded: could inhibit
- cell proliferation of K562 (K562; 6 mM glucose): almost unaffected
- malignant proliferation of U937 (U937; [5]): significantly inhibited; also recorded: could inhibit
- cell proliferation of U937 (U937; 6 mM glucose): almost unaffected
